This data set in a line: recombinant UMI read abundance after kanamycin selection (control-corrected) (log10(CPM+1)); higher = more efficient recombination; extreme values may be limits of the assay; sequences stand for … in AGTGCAGAGAAAATCGGCCAGTTTTCTCTGCCTGCAGTCCGCATGCCGTGGGACCCCTTGGGTTCTAACCTGTTGCCTAGATTTATGCAGCGGACTGCCTTTCTCCCAAAGTGATAAACCGG…AGGTTGGTTTCACT; site = the 11-nt donor. The procedure, abridged:
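Under IPTG (0.07 mM) plus kanamycin, or without selection, Escherichia coli carrying a UMI-tagged donor and donor-binding-loop pair library and a target plasmid for the IS621 bridge recombinase were plated in two replicates. Recombinant UMIs were PCR-amplified across the donor–target junction and sequenced. Counts were converted to CPM, averaged over replicates, scaled by control-derived factors and reported as log10(CPM+1).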
In the case of “CCGTTAGCATGGACCGGTTTTCCCGGTAATCCGTATTTGTC (site CCGTTAGCTAA)”, the “recombinant UMI read abundance (log10)” value is 0.0291.

Turning to “CCGTTAGCATGGACCGGTTTTCCCGGTAATCCGTATTTGTC (site CCGTTAGCTCA)”, the “recombinant UMI read abundance (log10)” value came to 0.00762.

On to “CCGTTAGCATGGACCGGTTTTCCCGGTAATCCGTATTTGTC (site CCGTTAGCTGA)”, for which the “recombinant UMI read abundance (log10)” value was found to be 1.58.

As for “CCGTTAGCATGGACCGGTTTTCCCGGTAATCCGTATTTGTC (site CCGTTAGCTTA)”, the “recombinant UMI read abundance (log10)” value was 0.396.

Regarding “CCGTTAGCATGGACCGGTTTTCCCGGTAATCCGTATTTGTT (site CCGTTAGCTAA)”, the “recombinant UMI read abundance (log10)” value was 1.02.

Consider “CCGTTAGCATGGACCGGTTTTCCCGGTAATCCGTATTTGTT (site CCGTTAGCTCA)”, for which the “recombinant UMI read abundance (log10)” value was 0.00936.

For the sequence “CCGTTAGCATGGACCGGTTTTCCCGGTAATCCGTATTTGTT (site CCGTTAGCTGA)”, the “recombinant UMI read abundance (log10)” value came out at 0.

Consider “CCGTTAGCATGGACCGGTTTTCCCGGTAATCCGTATTTGTT (site CCGTTAGCTTA)”, for which the “recombinant UMI read abundance (log10)” value came out at 0.00339.

On to “CCGTTATCATGGACCGGTTTTCCCGGTAATCCGTATTTGTG (site CCGTTAACTCA)”, for which the “recombinant UMI read abundance (log10)” value is 0.0485.

Regarding “CCGTTATCATGGACCGGTTTTCCCGGTAATCCGTATTTGTG (site CCGTTACCTCA)”, the “recombinant UMI read abundance (log10)” value is 0.00831.

Take “CCGTTATCATGGACCGGTTTTCCCGGTAATCCGTATTTGTG (site CCGTTAGCTCA)”: the “recombinant UMI read abundance (log10)” value came to 0.0138.

“CCGTTATCATGGACCGGTTTTCCCGGTAATCCGTATTTGTG (site CCGTTATCTCA)”: the “recombinant UMI read abundance (log10)” value came out at 0.662.

With “CCGTTCTCATGGACCGGTTTTCCCGGTAATCCGTATTTGGA (site CCGTTCTCTTC)”, the “recombinant UMI read abundance (log10)” value is 0.

Take “CCGTTTACATGGACCGGTTTTCCCGGTAATCCGTATTTGGT (site CCGTTTACTAA)”: the “recombinant UMI read abundance (log10)” value was 0.00739.

For the sequence “CCGTTTACATGGACCGGTTTTCCCGGTAATCCGTATTTGGT (site CCGTTTACTAC)”, the “recombinant UMI read abundance (log10)” value is 0.279.

Regarding “CCGTTTACATGGACCGGTTTTCCCGGTAATCCGTATTTGGT (site CCGTTTACTAG)”, the “recombinant UMI read abundance (log10)” value came to 0.

Take “CCGTTTACATGGACCGGTTTTCCCGGTAATCCGTATTTGGT (site CCGTTTACTAT)”: the “recombinant UMI read abundance (log10)” value worked out at 0.

For the sequence “CCGTTTCCATGGACCGGTTTTCCCGGTAATCCGTATTTGAC (site CCGTTTCCTGT)”, the “recombinant UMI read abundance (log10)” value worked out at 0.

With “CCGTTTTCATGGACCGGTTTTCCCGGTAATCCGTATTTGCT (site CCGTTTACTAG)”, the “recombinant UMI read abundance (log10)” value amounted to 0.

For “CCGTTTTCATGGACCGGTTTTCCCGGTAATCCGTATTTGCT (site CCGTTTCCTAG)”, the “recombinant UMI read abundance (log10)” value was 0.00608.

“CCGTTTTCATGGACCGGTTTTCCCGGTAATCCGTATTTGCT (site CCGTTTGCTAG)”: the “recombinant UMI read abundance (log10)” value amounted to 0.

For “CCGTTTTCATGGACCGGTTTTCCCGGTAATCCGTATTTGCT (site CCGTTTTCTAG)”, the “recombinant UMI read abundance (log10)” value was determined as 0.

Consider “CCTAAAGCATGGACCGGTTTTCCCGGTAATCCGTATTTGAT (site ACTAAAGCTAT)”, for which the “recombinant UMI read abundance (log10)” value came out at 0.

Turning to “CCTAAAGCATGGACCGGTTTTCCCGGTAATCCGTATTTGAT (site CATAAAGCTAT)”, the “recombinant UMI read abundance (log10)” value is 0.

As for “CCTAAAGCATGGACCGGTTTTCCCGGTAATCCGTATTTGAT (site CCAAAAGCTAT)”, the “recombinant UMI read abundance (log10)” value is 0.

In the case of “CCTAAAGCATGGACCGGTTTTCCCGGTAATCCGTATTTGAT (site CCCAAAGCTAT)”, the “recombinant UMI read abundance (log10)” value came to 0.0148.

On to “CCTAAAGCATGGACCGGTTTTCCCGGTAATCCGTATTTGAT (site CCGAAAGCTAT)”, for which the “recombinant UMI read abundance (log10)” value was 0.

For the sequence “CCTAAAGCATGGACCGGTTTTCCCGGTAATCCGTATTTGAT (site CCTAAAACTAT)”, the “recombinant UMI read abundance (log10)” value is 0.

In the case of “CCTAAAGCATGGACCGGTTTTCCCGGTAATCCGTATTTGAT (site CCTAAACCTAT)”, the “recombinant UMI read abundance (log10)” value is 0.00391.

For the sequence “CCTAAAGCATGGACCGGTTTTCCCGGTAATCCGTATTTGAT (site CCTAAAGCTAA)”, the “recombinant UMI read abundance (log10)” value turned out to be 0.

Take “CCTAAAGCATGGACCGGTTTTCCCGGTAATCCGTATTTGAT (site CCTAAAGCTAC)”: the “recombinant UMI read abundance (log10)” value worked out at 0.

Take “CCTAAAGCATGGACCGGTTTTCCCGGTAATCCGTATTTGAT (site CCTAAAGCTAG)”: the “recombinant UMI read abundance (log10)” value stood at 0.

For the sequence “CCTAAAGCATGGACCGGTTTTCCCGGTAATCCGTATTTGAT (site CCTAAAGCTAT)”, the “recombinant UMI read abundance (log10)” value came to 0.14.

On to “CCTAAAGCATGGACCGGTTTTCCCGGTAATCCGTATTTGAT (site CCTAAAGCTCT)”, for which the “recombinant UMI read abundance (log10)” value was found to be 0.00392.

Regarding “CCTAAAGCATGGACCGGTTTTCCCGGTAATCCGTATTTGAT (site CCTAAAGCTGT)”, the “recombinant UMI read abundance (log10)” value came to 0.

As to “CCTAAAGCATGGACCGGTTTTCCCGGTAATCCGTATTTGAT (site CCTAAAGCTTT)”, the “recombinant UMI read abundance (log10)” value is 0.

With “CCTAAAGCATGGACCGGTTTTCCCGGTAATCCGTATTTGAT (site CCTAAATCTAT)”, the “recombinant UMI read abundance (log10)” value is 0.

Turning to “CCTAAAGCATGGACCGGTTTTCCCGGTAATCCGTATTTGAT (site CCTAACGCTAT)”, the “recombinant UMI read abundance (log10)” value was determined as 0.035.

Regarding “CCTAAAGCATGGACCGGTTTTCCCGGTAATCCGTATTTGAT (site CCTAAGGCTAT)”, the “recombinant UMI read abundance (log10)” value worked out at 0.

For “CCTAAAGCATGGACCGGTTTTCCCGGTAATCCGTATTTGAT (site CCTAATGCTAT)”, the “recombinant UMI read abundance (log10)” value turned out to be 0.00544.

Turning to “CCTAAAGCATGGACCGGTTTTCCCGGTAATCCGTATTTGAT (site CCTACAGCTAT)”, the “recombinant UMI read abundance (log10)” value was found to be 0.0037.

Take “CCTAAAGCATGGACCGGTTTTCCCGGTAATCCGTATTTGAT (site CCTAGAGCTAT)”: the “recombinant UMI read abundance (log10)” value amounted to 0.00698.

Turning to “CCTAAAGCATGGACCGGTTTTCCCGGTAATCCGTATTTGAT (site CCTATAGCTAT)”, the “recombinant UMI read abundance (log10)” value is 0.00347.

Take “CCTAAAGCATGGACCGGTTTTCCCGGTAATCCGTATTTGAT (site CCTCAAGCTAT)”: the “recombinant UMI read abundance (log10)” value stood at 0.00248.

On to “CCTAAAGCATGGACCGGTTTTCCCGGTAATCCGTATTTGAT (site CCTGAAGCTAT)”, for which the “recombinant UMI read abundance (log10)” value came out at 0.

As to “CCTAAAGCATGGACCGGTTTTCCCGGTAATCCGTATTTGAT (site CCTTAAGCTAT)”, the “recombinant UMI read abundance (log10)” value stood at 0.0074.

Take “CCTAAAGCATGGACCGGTTTTCCCGGTAATCCGTATTTGAT (site CGTAAAGCTAT)”: the “recombinant UMI read abundance (log10)” value came to 0.

With “CCTAAAGCATGGACCGGTTTTCCCGGTAATCCGTATTTGAT (site CTTAAAGCTAT)”, the “recombinant UMI read abundance (log10)” value was 0.00697.

Turning to “CCTAAAGCATGGACCGGTTTTCCCGGTAATCCGTATTTGAT (site GCTAAAGCTAT)”, the “recombinant UMI read abundance (log10)” value amounted to 0.

For the sequence “CCTAAAGCATGGACCGGTTTTCCCGGTAATCCGTATTTGAT (site TCTAAAGCTAT)”, the “recombinant UMI read abundance (log10)” value was determined as 0.00543.

With “CCTAAAGCATGGACCGGTTTTCCCGGTAATCCGTATTTGGA (site CCTAAAGCTTC)”, the “recombinant UMI read abundance (log10)” value came to 0.0116.

Consider “CCTAAGACATGGACCGGTTTTCCCGGTAATCCGTATTTGGC (site CCTAAAACTGC)”, for which the “recombinant UMI read abundance (log10)” value worked out at 0.

For “CCTAAGACATGGACCGGTTTTCCCGGTAATCCGTATTTGGC (site CCTAACACTGC)”, the “recombinant UMI read abundance (log10)” value came to 0.

On to “CCTAAGACATGGACCGGTTTTCCCGGTAATCCGTATTTGGC (site CCTAAGACTGC)”, for which the “recombinant UMI read abundance (log10)” value stood at 0.

For the sequence “CCTAAGACATGGACCGGTTTTCCCGGTAATCCGTATTTGGC (site CCTAATACTGC)”, the “recombinant UMI read abundance (log10)” value stood at 0.

Consider “CCTAAGGCATGGACCGGTTTTCCCGGTAATCCGTATTTGAT (site CCTAAAGCTAT)”, for which the “recombinant UMI read abundance (log10)” value worked out at 0.

In the case of “CCTAAGGCATGGACCGGTTTTCCCGGTAATCCGTATTTGAT (site CCTAACGCTAT)”, the “recombinant UMI read abundance (log10)” value stood at 0.00671.

Turning to “CCTAAGGCATGGACCGGTTTTCCCGGTAATCCGTATTTGAT (site CCTAAGGCTAT)”, the “recombinant UMI read abundance (log10)” value is 0.0186.

Regarding “CCTAAGGCATGGACCGGTTTTCCCGGTAATCCGTATTTGAT (site CCTAATGCTAT)”, the “recombinant UMI read abundance (log10)” value amounted to 0.

In the case of “CCTAATACATGGACCGGTTTTCCCGGTAATCCGTATTTGGC (site ACTAATACTGC)”, the “recombinant UMI read abundance (log10)” value turned out to be 0.

Regarding “CCTAATACATGGACCGGTTTTCCCGGTAATCCGTATTTGGC (site CATAATACTGC)”, the “recombinant UMI read abundance (log10)” value was found to be 0.

For “CCTAATACATGGACCGGTTTTCCCGGTAATCCGTATTTGGC (site CCAAATACTGC)”, the “recombinant UMI read abundance (log10)” value is 0.

In the case of “CCTAATACATGGACCGGTTTTCCCGGTAATCCGTATTTGGC (site CCCAATACTGC)”, the “recombinant UMI read abundance (log10)” value was 0.

For “CCTAATACATGGACCGGTTTTCCCGGTAATCCGTATTTGGC (site CCGAATACTGC)”, the “recombinant UMI read abundance (log10)” value was 0.

As to “CCTAATACATGGACCGGTTTTCCCGGTAATCCGTATTTGGC (site CCTAAAACTGC)”, the “recombinant UMI read abundance (log10)” value was determined as 0.00801.

For the sequence “CCTAATACATGGACCGGTTTTCCCGGTAATCCGTATTTGGC (site CCTAACACTGC)”, the “recombinant UMI read abundance (log10)” value is 0.

Turning to “CCTAATACATGGACCGGTTTTCCCGGTAATCCGTATTTGGC (site CCTAAGACTGC)”, the “recombinant UMI read abundance (log10)” value was 0.

Consider “CCTAATACATGGACCGGTTTTCCCGGTAATCCGTATTTGGC (site CCTAATACTAC)”, for which the “recombinant UMI read abundance (log10)” value was 0.0181.

(Values after the supplement of paper PMC11208160.)
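Note: IS621 bridge recombinase in Escherichia coli cells against a fixed T5 target plasmid.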
